pIC50: −log10 of the molar value. Active and inactive are the calls of the source. No cut-off for these calls is given here.
Assays:
HT-29 [1] = assay: Cytotoxicity against human HT-29 cells after 48 hrs by XTT/PMS assay; type: functional, cell-based; details: HT-29, 48 h
HeLa [2] = assay: Cytotoxicity against human HeLa cells after 48 hrs by WST8 assay; type: functional, cell-based
HeLa [3] = assay: Potency index, ratio of IC50 for Plinabulin to IC50 for test compound against human HeLa cells after 48 hrs by WST8 assay; type: functional
A549 [4] = assay: Potency index, ratio of IC50 for Plinabulin to IC50 for test compound against human A549 cells after 48 hrs by WST8 assay; type: functional
[5] = Cytotoxicity against human PMNC cells after 48 hrs by WST1 assay; type: functional, cell-based
HT-29 [6] = assay: Selectivity index, ratio of IC50 for human NHSF46 cells to IC50 for human HT-29 cells; type: functional
HeLa [7] = assay: Induction of multipolar spindle formation in human HeLa cells at 7 nM by DAPI staining; type: functional, cell-based
HT-29 [8] = assay: Selectivity index, ratio of IC50 for human PMNC cells to IC50 for human HT-29 cells; type: functional
Tubulin [9] = target: T1, Tubulin (Sus scrofa, UniProt P02554+P02550); assay: Binding affinity to porcine tubulin incubated for 1 hr by spectrofluorometry; type: protein assay
[10] = Cytotoxicity against human NHSF46 cells after 48 hrs by XTT/PMS assay; type: cell-based; details: NHSF46, 48 h
Tubulin [11] = target: T1, Tubulin; assay: Inhibition of porcine tubulin polymerization by spectrophotometry; type: protein assay
HeLa [12] = assay: Inhibition of mitotic spindle formation in human HeLa cells at 7 and 30 nM by DAPI staining
A549 [13] = assay: Cytotoxicity against human A549 cells after 48 hrs by WST8 assay; type: functional, cell-based; details: A549, 48 h
HeLa [14] = assay: Induction of multipolar spindle formation in human HeLa cells at 20 to 30 nM by DAPI staining; type: functional, cell-based

## O=C1CNC(=O)/C(=C/c2cccc(C(=O)c3ccccc3)c2)N1
HT-29 [1]
  pIC50: < 4.70

## CC(=O)N1CC(=O)N/C(=C\c2cccc(C(=O)c3ccccc3)c2)C1=O
HT-29 [1]
  pIC50: 5.06

## O=C(c1ccccc1)c1cccc(/C=c2\[nH]c(=O)/c(=C/c3ccccn3)[nH]c2=O)c1
HeLa [2]
  pIC50: 8.27
HT-29 [1]
  pIC50: 8.15
HeLa [3]
  Ratio IC50: 3.8
A549 [4]
  Ratio IC50: 2.5
[5]
  pIC50: 6.32
HT-29 [6]
  Ratio IC50: 10
HeLa [7]
  Activity: Active
HT-29 [8]
  Ratio IC50: 10
Tubulin [9]
  Kd: 1.3 µM
[10]
  pIC50: 7.11
Tubulin [11]
  IC50: 1.2 µM
HeLa [12]
  inhibition: Active
A549 [13]
  pIC50: 7.85

## CC(C)(C)c1[nH]cnc1/C=c1\[nH]c(=O)/c(=C/c2ccccc2)[nH]c1=O [PLINABULIN]
HeLa [2]
  pIC50: 7.69
Tubulin [9]
  Kd: 1 µM
HeLa [14]
  Activity: Active
Tubulin [11]
  IC50: 1.8 µM
HeLa [12]
  inhibition: Active
A549 [13]
  pIC50: 7.45

## O=C(c1ccccc1)c1cccc(/C=c2\[nH]c(=O)/c(=C/c3cccnc3)[nH]c2=O)c1
HT-29 [1]
  pIC50: < 6.00

## O=C(c1ccccc1)c1cccc(/C=c2\[nH]c(=O)/c(=C/c3ccccc3)[nH]c2=O)c1
HT-29 [1]
  pIC50: 7.03

## O=C(c1ccccc1)c1cccc(/C=c2\[nH]c(=O)/c(=C/c3ncccn3)[nH]c2=O)c1
HT-29 [1]
  pIC50: 7.12

## O=C(c1ccccc1)c1cccc(/C=c2\[nH]c(=O)/c(=C/c3ccncc3)[nH]c2=O)c1
HT-29 [1]
  pIC50: < 6.00

## Cc1[nH]cnc1/C=c1\[nH]c(=O)/c(=C/c2cccc(C(=O)c3ccccc3)c2)[nH]c1=O
HT-29 [1]
  pIC50: 7.82
